Measured values reported in patent US20240189283A1, “L-ERGOTHIONEINE-CONTAINING COMPOSITION” (NAGASE & CO., LTD., priority 2021, published 2024).
Where two headings read alike, the source gives them in different places.

Tests used:
Escherichia coli = details: EGT at 5 mM and 50 mM; cited from earlier work
[1] = HPLC area of SRH, SRH dehydrated dimer and EGT before and 4 days after concentration (Reference Example); type: physicochemical; details: sample with 15 parts by mass SRH per 100 parts EGT, PDA 210 nm; for HPLC area, 4 days after concentration: concentrated at 30° C., left at room temperature 4 days
Procedure: In an SRH 0.108 w/w % aqueous solution (1 mL) was dissolved 7.1 mg of EGT (manufactured by Tetrahedron) to prepare a sample having 15 parts by mass of SRH with respect to 100 parts by mass of EGT.
For HPLC analysis, 100 μL of the sample was diluted 10 times with water. The remaining 900 μL was concentrated under reduced pressure using an evaporator at 30° C. After the mixture was left to stand at room temperature for 4 days, the mixture was dissolved in 0.9 mL of water. For HPLC analysis, 100 μL of the solution was diluted 10 times with water.
HPLC analysis was performed under the following conditions.
Column: YMC-Pack ODS-AQ S-5 μM, 12 nm, 250×4.6 mm I.D.
Flow rate: 0.5 mL/min, Temperature: 30° C.
Eluent: 0.1% aqueous formic acid solution
Retention time: SRH: around 6.6 minutes; SRH dehydrated dimer: around 7.5 minutes; EGT: around 8.7 minutes.

OT-II CD4+ T cells = details: 30 mM EGT; co-culture with F4/80 macrophages; cited from earlier work
[2] = tested on: mouse bone marrow-derived macrophages; details: cited from earlier work; for production of cytokines (IL-6, IL-12p40, IL-1β, IL-10): toll-like receptor ligand stimulation

Row | SMILES | growth of Escherichia coli (Escherichia coli) | HPLC area, before concentration [1] | HPLC area, 4 days after concentration [1] | Th17 polarization of OT-II CD4+ T cells (OT-II CD4+ T cells) | production of cytokines (IL-6, IL-12p40, IL-1β, IL-10) ([2]; 1 mM EGT) | production of cytokines (IL-6, IL-12p40, IL-1β, IL-10) ([2]; 10 mM EGT) | concentration that activates macrophages [2] [mM]
1 | C[N+](C)(C)[C@@H](Cc1c[nH]c(=S)[nH]1)C(=O)[O-] [EGT, N,N,N-trimethyl-L-2-thiohistidine] | suppresses the growth | 13959268 | 14131254 | promoted | not | promoted | ≥ 10
2 | N[C@@H](CCSC1O[C@H](CO)[C@@H](O)[C@H]1O)C(=O)O (stereo partly drawn) [SRH, S-ribosylhomocysteine] |  | 156690 | 108189 |  |  |  | 
